Measurements: ChEMBL document CHEMBL1142029, “Design, synthesis, and biological activity of novel PPARgamma ligands based on rosiglitazone and 15d-PGJ2” (Bioorg Med Chem Lett, 2005)
Activity calls are given as the source filed them. The calls are words filed in the database; no cut-off is given here.

Molecular target: T1, Peroxisome proliferator-activated receptor gamma (Homo sapiens) (UniProt P37231)
T1 sequence (whole entry): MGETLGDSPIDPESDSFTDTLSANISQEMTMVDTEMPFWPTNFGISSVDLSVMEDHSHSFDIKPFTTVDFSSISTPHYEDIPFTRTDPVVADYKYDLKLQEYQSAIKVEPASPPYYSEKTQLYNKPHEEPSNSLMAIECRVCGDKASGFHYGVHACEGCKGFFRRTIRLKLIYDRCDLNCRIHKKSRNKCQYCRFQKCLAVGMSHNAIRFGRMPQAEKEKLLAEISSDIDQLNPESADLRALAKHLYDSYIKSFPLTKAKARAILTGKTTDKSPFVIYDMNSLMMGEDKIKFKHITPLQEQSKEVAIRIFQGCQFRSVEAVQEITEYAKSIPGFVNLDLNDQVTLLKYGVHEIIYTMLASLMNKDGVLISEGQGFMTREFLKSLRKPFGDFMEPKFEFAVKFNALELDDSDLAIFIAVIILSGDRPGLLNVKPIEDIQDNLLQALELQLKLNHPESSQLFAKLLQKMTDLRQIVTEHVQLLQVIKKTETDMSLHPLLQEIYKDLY
Assay: Binding affinity for peroxisome proliferator-activated receptor gamma: active

SMILES	Activity
CCCCCCCCCCN(CCOc1ccc(CCC(=O)O)cc1)c1ccccn1	Active
CCCN(CCOc1ccc(CCC(=O)O)cc1)c1ccccn1	Active
CCCCN(CCOc1ccc(CCC(=O)O)cc1)c1ccccn1	Active
CCN(CCOc1ccc(CCC(=O)O)cc1)c1ccccn1	Active
CN(CCOc1ccc(CCC(=O)O)cc1)c1ccccn1	Active

The remaining lines, values ahead:

Activity	SMILES
Active	CCCCCCN(CCOc1ccc(CCC(=O)O)cc1)c1ccccn1
Active	CCCCCN(CCOc1ccc(CCC(=O)O)cc1)c1ccccn1

Molecular target: T1, Peroxisome proliferator-activated receptor gamma (Homo sapiens)
Assay: Binding affinity for peroxisome proliferator-activated receptor gamma: more active

Activity	SMILES
Active	CCCCCCCN(CCOc1ccc(CCC(=O)O)cc1)c1ccccn1
Active	CCCCCCCCN(CCOc1ccc(CCC(=O)O)cc1)c1ccccn1

Molecular target: T1, Peroxisome proliferator-activated receptor gamma (Homo sapiens)
Assay: Binding affinity for peroxisome proliferator-activated receptor gamma: weak activity

Activity	SMILES
Weak activity	O=C(O)CCc1ccc(OCCN(c2ccccc2)c2ccccn2)cc1
Weak activity	O=C(O)CCc1ccc(OCCn2c3ccccc3c3ccncc32)cc1
Weak activity	O=C(O)CCc1ccc(OCCN(c2ccccn2)c2ccccn2)cc1
